Like-named read-outs stand apart in the source and are kept apart here. Values belong to the compound of their own block, whether it stands above or below them.
Assays:
[1] = tested on: T. cruzi intracellular amastigotes; assay: Image-based assay of the number of T. cruzi infected cells (intracellular amastigotes in 3T3 host cells); format: cell-based, Trypanosoma cruzi; conditions: for T. cruzi Wash off IC50 value: compound wash off, further 72 hours without compound; for inhibition at 183 µM: read-out: inhibition of T. cruzi growth at highest test concentration
Description: (§1) Parasites and host cells were maintained as outlined previously. Briefly, host 3T3 fibroblasts (ATCC, CCL-92) were grown in RPMI medium (Thermo Fisher Scientific, USA) with no phenol red, supplemented with 10% FBS (Thermo Fisher Scientific, USA) and incubated at 37°C in 5% CO2. Host cells were harvested at 70% confluency and were split every 2–3 days in 175 cm^2 flasks. 3T3 cells were cultured up to passage 7 as contact inhibition was reduced or lost at higher passages. Prior to infection with T. cruzi trypomastigotes, host cells were seeded at 1.2 x 10^6 cells in 75 cm^2 or 4 x 10^5 cells in 25 cm^2 flasks and grown for 24 hours before parasite addition. Parasites were added at a multiplicity of infection (MOI) of 10:1 and incubated for 24 hours before non-infected trypomastigotes were washed off the host cell bed with PBS supplemented with Ca^2+ and Mg^2+ (Thermo Fisher Scientific, USA). Incubation was continued for a further 3 days, until tissue culture trypomastigotes began to egress from host cells. Egressed parasites were used for assays or to continue the infective life cycle in vitro.
(§2) The activity of the nucleoside analogues against T. cruzi intracellular amastigotes following 24, 48 hours exposure and compound wash off, was determined using image-based techniques as previously described. Briefly, 14-point serial dilutions of the compounds in 100% DMSO were prepared and then further diluted in sterile water at a ratio of 1:21 compound: water. Five microliters of the diluted compounds were added to wells of T. cruzi infected host cells, using a MiniTrak compound handling device (Perkin Elmer, USA) with final concentrations in the plate ranging from 183 μM to 4.6 x 10^−4 μM. All experiments were performed with two separate biological replicates.
IC50 values for inhibitory activity of both the nucleoside analogues tested as DNA probes and known inhibitors tested to determine their effect on replication of T. cruzi were calculated in GraphPad Prism 5, using sigmoidal dose response with variable slope. […] The p-value for difference in the % activity at Emax concentrations for compounds with known activity (EdU identified parasites, compared to Hoechst identified parasites) against T. cruzi was determined using GraphPad Prism 5, using an unpaired student’s t-test. […] The Emax for each compound was at least two data points in from the beginning of the plateau of activity in the IC50 curve, as previously described.

[2] = tested on: T. cruzi intracellular amastigotes; assay: Detection of T. cruzi replication following exposure to inhibitors (EdU incorporation vs Hoechst); format: cell-based, Trypanosoma cruzi; conditions: for IC50: 48 hours exposure, mean ± SD
Description: The addition of host cells, parasites and compounds were as described for the T. cruzi image based method previously reported. […] Addition of nuclear and cytoplasmic dyes was undertaken as previously reported and images captured on an Opera confocal image-based system at 20x magnification. Image analysis was performed with a script developed in Columbus software (CHEMICAL LABEL INCORPORATION SCRIPT). Control wells were also imaged at an increased, 60x magnification to show the distribution of staining and the structure of the parasites within host cells. Eight background control wells consisted of infected host cells, fixed and exposed to Hoechst and the click chemistry cocktail, without the addition of the chemical probe EdU. […] All images taken were not modified and were taken on an Opera, confocal image-based reader.

[3] = tested on: 3T3 cells; assay: Image-based assay, effect on 3T3 host cells; format: cell-based; conditions: 48 h, highest test concentration 183 μM
Description: as §1
as §2, with “The activity of the nucleoside analogues against T. cruzi intracellular amastigotes following 24, 48 hours exposure and compound wash off, was determined using image-based techniques as previously described.” left out
Image analysis was performed with a script developed in Columbus software (CHEMICAL LABEL INCORPORATION SCRIPT). Control wells were also imaged at an increased, 60x magnification to show the distribution of staining and the structure of the parasites within host cells. Eight background control wells consisted of infected host cells, fixed and exposed to Hoechst and the click chemistry cocktail, without the addition of the chemical probe EdU. […] The percentage activity of compounds against parasite number / infected cells (identified with Hoechst) was calculated against a positive control of 12 μM of NFX for the parasite and 30 μM of PURO the host cells; and a negative control of 0.47% DMSO. All images taken were not modified and were taken on an Opera, confocal image-based reader.

[4] = tested on: HEK293 cells; assay: Redox-based assay to assess HEK293 viability; format: cell-based, human; conditions: 48 hours exposure, highest test concentration 87 μM, EdU value estimated, relative to Emax plateau of 57%
Description: To determine the effect of the nucleoside analogues against a replicating mammalian cell line, analogues were tested against HEK293 cells, utilising a REDOX-based metabolic assay to assess cell viability as previously described. […] Experiments were performed over two biological replicates.

[5] = tested on: T. cruzi amastigote DNA; assay: Incorporation of pyrimidine nucleoside analogues into T. cruzi amastigote DNA (click chemistry, colocalisation with Hoechst); format: cell-based, Trypanosoma cruzi; conditions: for incorporation (no incorporation observed): concentrations up to a maximum of 73 μM
Description: T. cruzi infected 3T3 fibroblasts were initially exposed to nucleoside analogues for 48 hours at concentrations ranging from 73 μM to 1.8 x10^-4 μM. Host cell, parasite and compound additions were carried out as previously described. Cells were then stained using a click chemistry azide cocktail, followed by Hoechst to identify nuclear material, as previously reported. The freshly prepared azide cocktail consisted of a final concentration of 5 μM of Alexa Fluor 488 azide (Thermo Fisher Scientific, USA), 1 mM copper sulfate (Sigma Aldrich, USA) and 100 mM sodium ascorbate (Sigma Aldrich, USA), in DPBS. Wells were imaged on an Opera image-based reader (Perkin Elmer, USA) at 20x magnification with 405 nm (defined as Hoechst channel) and 488 nm (defined as Alexa 488 channel) lasers using filter sets/bandwidth (emission) of 450/50 nm and 540/75 nm, respectively. To determine nucleoside analogue incorporation into T. cruzi amastigote DNA, a script was developed utilising the Columbus (PerkinElmer, USA) image-based analysis and data handling platform (CHEMICAL LABEL INCORPORATION SCRIPT). Nucleoside analogues were also tested for DNA incorporation following 2, 4 and 24 hours exposure, at the same concentrations. All experiments were performed in duplicate. The colocalisation of nucleoside analogues and Hoechst (replicating parasites) at each time point (48, 4 and 2 hours) was compared using GraphPad Prism 5.
A CHEMICAL LABEL INCORPORATION SCRIPT developed in Columbus firstly identified Hoechst stained parasites within host cells by spot analysis, utilizing the same building block analysis as we had previously developed to determine T. cruzi infected cells. The physical definition of amastigote DNA was identified by Hoechst, with the only modification being that as there was no cytoplasmic marker, thus segmentation borders in the Hoechst channel were applied, which effectively separated host cells (Fig 2). Further building blocks were added to calculate the intensity of Alexa Fluor 488 within the spots identified by Hoechst, in infected cells. This script was first applied to images to determine the mean fluorescence intensity in the Alexa 488 channel of Hoechst identified parasites, without the addition of the chemical label. The mean plus three times the standard deviation of this intensity was used to define values above background, thus the minimum intensity above background required to identify parasite DNA which successfully incorporated the chemical label. An input box was incorporated into the script, in which this minimum intensity above background was entered. Parameters of the developed script, “CHEMICAL LABEL INCORPORATION” are shown in S1 Table.
• Number of T. cruzi amastigote infected cells (≥5 parasites per cell, identified with Hoechst). • Number of Hoechst identified T. cruzi parasites (in infected cells). • Number of parasites incorporating chemical label (T. cruzi parasites with Alexa 488 intensity above background, in infected cells). • % chemical label incorporation. Alexa 488 spots in infected cells (above background) NO / Hoechst spots in infected cells NO *100 = Percentage colocalisation; where NO = number of objects. • Number of host cells.

[6] = Trypanosoma cruzi, 48 hours exposure, well-established intracellular infection assay, mean ± SD, POSA value based on sub-optimal effect (Emax 75%), read-out: IC50 value Infected cells (Hoechst)
[7] = Trypanosoma cruzi, then 0.37 μM EdU for 4 hours, number of EdU incorporating parasites, read-out: IC50 value Amastigotes (EdU)
[8] = Trypanosoma cruzi, number of Hoechst identified parasites in infected cells, read-out: IC50 value Amastigotes (Hoechst)
[9] = 24 hours exposure, highest test concentration 183 μM
[10] = 48 hours incubation, highest test concentration 183 μM
[11] = Trypanosoma cruzi, 48 h, 48 hours incubation

IC50 [2, 7]: 1290 ± 250 nM
IC50 [2, 8]: 2800 ± 940 nM
SMILES: O=C(Cn1ccnc1[N+](=O)[O-])NCc1ccccc1 [BZ, benznidazole]
IC50 [1, 6]: 6.7 ± 0.64 µM
inhibition at 127 µM ([2]; Trypanosoma cruzi, 2 h, read-out: mean inhibition of incorporation of EdU into the parasite DNA): 72 ± 8.7%

SMILES: C#Cc1cn([C@@H]2O[C@H](CO)[C@@H](O)[C@@H]2Br)c(=O)[nH]c1=O [Br-ara-EdU, (2′S)-2′-bromo-2′-deoxy-5-ethynyl-uridine]
T. cruzi 24 IC50 value [1, 9]: NA (NA = ≤50% activity at the highest concentration tested and an IC50 value could not be determined)
T. cruzi Wash off IC50 value [1, 10]: NA (NA = ≤50% activity at the highest concentration tested and an IC50 value could not be determined)
T. cruzi 48 IC50 value [1, 10]: NA (NA = ≤50% activity at the highest concentration tested and an IC50 value could not be determined)
inhibition at 183 µM [1, 11]: ≤ 50%
Host cell 3T3 IC50 value 48 h [3]: NA (NA = ≤50% activity at the highest concentration tested and an IC50 value could not be determined)
HEK293 IC50 value [4]: NA (NA = ≤50% activity at the highest concentration tested and an IC50 value could not be determined)
incorporation into T. cruzi DNA following 48 hours incubation (in words) [5]: did not
incorporation (no incorporation observed) ([5]; 48 hours): < 20%

SMILES: C#Cc1cn([C@@H]2O[C@H](CO)[C@@H](O)[C@@H]2Cl)c(=O)[nH]c1=O [Cl-ara-EdU, (2′S)-chloro-2′-deoxy-5-ethynyl-uridine]
T. cruzi 24 IC50 value [1, 9]: NA (NA = ≤50% activity at the highest concentration tested and an IC50 value could not be determined)
T. cruzi Wash off IC50 value [1, 10]: NA (NA = ≤50% activity at the highest concentration tested and an IC50 value could not be determined)
T. cruzi 48 IC50 value [1, 10]: NA (NA = ≤50% activity at the highest concentration tested and an IC50 value could not be determined)
inhibition at 183 µM [1, 11]: ≤ 50%
Host cell 3T3 IC50 value 48 h [3]: NA (NA = ≤50% activity at the highest concentration tested and an IC50 value could not be determined)
HEK293 IC50 value [4]: NA (NA = ≤50% activity at the highest concentration tested and an IC50 value could not be determined)
incorporation into T. cruzi DNA following 48 hours incubation (in words) [5]: did not
incorporation (no incorporation observed) ([5]; 48 hours): < 20%

SMILES: C#Cc1cn([C@@H]2O[C@H](CO)[C@@H](O)[C@@H]2F)c(=O)[nH]c1=O [F-ara-EdU, (2S′)-2′-deoxy-2′-fluoro-5-ethynyl-uridine]
T. cruzi 24 IC50 value [1, 9]: NA (NA = ≤50% activity at the highest concentration tested and an IC50 value could not be determined)
T. cruzi Wash off IC50 value [1, 10]: NA (NA = ≤50% activity at the highest concentration tested and an IC50 value could not be determined)
T. cruzi 48 IC50 value [1, 10]: NA^3 (NA = ≤50% activity at the highest concentration tested and an IC50 value could not be determined)
inhibition at 73 µM ([1]; Trypanosoma cruzi, 48 h, 73 μM, 48 hours incubation, read-out: inhibition / activity against T. cruzi amastigotes at 73 μM): < 50%
inhibition at 183 µM [1, 11]: ≤ 50%
Host cell 3T3 IC50 value 48 h [3]: NA (NA = ≤50% activity at the highest concentration tested and an IC50 value could not be determined)
HEK293 IC50 value [4]: NA (NA = ≤50% activity at the highest concentration tested and an IC50 value could not be determined)
incorporation into parasite DNA following 2 hours exposure ([5]; 2 hours exposure): No incorporation
% of T. cruzi parasites with incorporation ([5]; 4 hours, 73 μM): 36 ± 7.3%
incorporation into T. cruzi DNA following 48 hours incubation (in words) [5]: incorporated
% of parasites with analogue incorporated ([5]; 48 hours, top concentration 73 μM): 91 ± 0.23%

IC50 [2, 7]: 3.8 ± 1 nM
IC50 [2, 8]: 3.8 ± 1 nM
SMILES: CC[C@@H]([C@H](C)O)n1ncn(-c2ccc(N3CCN(c4ccc(OC[C@@H]5CO[C@@](Cn6cncn6)(c6ccc(F)cc6F)C5)cc4)CC3)cc2)c1=O [POSA, posaconazole]
IC50 [1, 6]: 0.004 ± 0.0082 µM
Emax ([1]; Trypanosoma cruzi, 48 hours, infected cells (Hoechst), read-out: maximum activity (Emax) against T. cruzi): 75%
inhibition of EdU incorporation ([2]; 2 hours exposure, 1 μM (250 x the IC50 value), then 1.83 μM EdU 2 hours): no inhibition

SMILES: COc1ccc(C[C@H](N)C(=O)N[C@H]2[C@@H](O)[C@H](n3cnc4c(N(C)C)ncnc43)O[C@@H]2CO)cc1 [PURO, puromycin]
IC50 ([1]; Trypanosoma cruzi, 24 hours exposure, highest test concentration 183 μM, read-out: T. cruzi 24 IC50 value): 7.6 ± 1.2 µM
Emax ([1]; Trypanosoma cruzi, 24 hours exposure, read-out: T. cruzi 24 relative Emax (in brackets) (converted)): 92%
IC50 ([1]; Trypanosoma cruzi, 48 hours incubation, highest test concentration 183 μM, read-out: T. cruzi 48 IC50 value): 2.36 ± 0.78 µM
Emax ([1]; Trypanosoma cruzi, 48 hours incubation, read-out: T. cruzi 48 relative Emax (in brackets) (converted)): 100%
IC50 ([3]; Mus musculus, NIH3T3, read-out: Host cell 3T3 IC50 value 48 h): 4.4 ± 0.8 µM
IC50 ([4]; Homo sapiens, HEK293): 410 ± 170 nM

— article PMC7112222, “Investigation of pyrimidine nucleoside analogues as chemical probes to assess compound effects on the proliferation of Trypanosoma cruzi intracellular parasites” (PLoS Neglected Tropical Diseases, 2020)
